Results: patent US20230026696A1, “TRPV4 RECEPTOR LIGANDS” (UNIVERSITY OF UTAH RESEARCH FOUNDATION, priority 2019, published 2023)
Structures can show the parent of a compound that is named as a salt.

Target: T1, human TRPV4 (Homo sapiens, UniProt Q9HBA0)
T1 construct: expressed in transfected cells
Experiment: Fluorometric cell-based Ca2+ flux assay, HEK-293 cells stably overexpressing human TRPV4
Settings: HEK-293 stably overexpressing human TRPV4; agonist GSK1016790A 30 nM
Method: Fluorometric cell-based Ca^2+ flux assays were performed to assess TRPV4 antagonist activity and determine potency (IC50 values) in human embryonic kidney-293 cells (HEK-293) that stably overexpress human TRPV4. The assays were performed according to methods described in: Deering-Rice, C. E., Johansen, M. E., Roberts, J. K., Thomas, K. C., Romero, E. G., Lee, J., Yost, G. S., Veranth, J. M., and Reilly, C. A. (2012), Mol. Pharmacol. 81(3), 411-419; Shapiro, D., Deering-Rice, C. E., Romero, E. G., Hughen, R. W., Light, A. R., Veranth, J. M., and Reilly, C. A. (2013), Chem Res. Toxicol., 26, 750-758; and Deering-Rice, C. E., Mitchell, V. K., Romero, E. G., Abdel Aziz, M. H., and Reilly, C. A. (2014), Pharmacol. Res. & Perspectives. 2(5), 1-10.
The HEK-293 cells stably overexpressing human TRPV4 were grown to confluence in 2% (w/v) gelatin-coated 96-well plates in DMEM:F12 media supplemented with 5% fetal bovine serum, 1× penicillin/streptomycin (Invitrogen) and Geneticin (300 μg/mL).
The HEK-293 cells were prepared for assay by replacing the growth media with a 1:1 solution of LHC-9 and Fluo 4-Direct (Invitrogen) reagent containing Fluo 4-AM, pluronic F-127, probenecid, and a proprietary quencher dye. The cells were then incubated at 37° C. for 1 h in a cell culture incubator. The cells were subsequently washed by replacing the loading solution with LHC-9 containing 1 mM water-soluble probenecid (Invitrogen), 750 μM Trypan Red (ATT Bioquest), and a test compound (at various concentrations). The cells were incubated for an additional 30 minutes at 37° C. to allow for Fluo 4-AM cleavage and activation, as well as equilibration to both the test compounds and Fluo 4.
An agonist treatment solution (90 nM GSK1016790A, a potent activator of TRPV4) was prepared in LHC9 at 3× concentration and 25 μL was added to 50 μL of media on the cells in 96 well plates, providing a final concentration of 30 nM. Changes in cellular fluorescence were monitored with a BMG Labtech NOVOStar fluorescence plate reader for 1 minute at 37° C. Data were quantified as the maximum rate of change in fluorescence intensity (max ΔF/s), corrected for media only treatment (negative control), and represented as the percentage of response relative to the no antagonist control. A minimum of three replicates were used for each treatment condition, with a minimum of 8 concentrations to derive the IC50 values reported for each antagonist. The IC50 values for each antagonist, which are shown in Table 4 below, were calculated according to methods described in the assays were performed according to methods described in: Deering-Rice, C. E., Johansen, M. E., Roberts, J. K., Thomas, K. C., Romero, E. G., Lee, J., Yost, G. S., Veranth, J. M., and Reilly, C. A. (2012), Mol. Pharmacol. 81(3), 411-419; Shapiro, D., Deering-Rice, C. E., Romero, E. G., Hughen, R. W., Light, A. R., Veranth, J. M., and Reilly, C. A. (2013), Chem Res. Toxicol., 26, 750-758; and Deering-Rice, C. E., Mitchell, V. K., Romero, E. G., Abdel Aziz, M. H., and Reilly, C. A. (2014), Pharmacol. Res. & Perspectives. 2(5), 1-10.

T1 sequence (Q9HBA0 whole entry): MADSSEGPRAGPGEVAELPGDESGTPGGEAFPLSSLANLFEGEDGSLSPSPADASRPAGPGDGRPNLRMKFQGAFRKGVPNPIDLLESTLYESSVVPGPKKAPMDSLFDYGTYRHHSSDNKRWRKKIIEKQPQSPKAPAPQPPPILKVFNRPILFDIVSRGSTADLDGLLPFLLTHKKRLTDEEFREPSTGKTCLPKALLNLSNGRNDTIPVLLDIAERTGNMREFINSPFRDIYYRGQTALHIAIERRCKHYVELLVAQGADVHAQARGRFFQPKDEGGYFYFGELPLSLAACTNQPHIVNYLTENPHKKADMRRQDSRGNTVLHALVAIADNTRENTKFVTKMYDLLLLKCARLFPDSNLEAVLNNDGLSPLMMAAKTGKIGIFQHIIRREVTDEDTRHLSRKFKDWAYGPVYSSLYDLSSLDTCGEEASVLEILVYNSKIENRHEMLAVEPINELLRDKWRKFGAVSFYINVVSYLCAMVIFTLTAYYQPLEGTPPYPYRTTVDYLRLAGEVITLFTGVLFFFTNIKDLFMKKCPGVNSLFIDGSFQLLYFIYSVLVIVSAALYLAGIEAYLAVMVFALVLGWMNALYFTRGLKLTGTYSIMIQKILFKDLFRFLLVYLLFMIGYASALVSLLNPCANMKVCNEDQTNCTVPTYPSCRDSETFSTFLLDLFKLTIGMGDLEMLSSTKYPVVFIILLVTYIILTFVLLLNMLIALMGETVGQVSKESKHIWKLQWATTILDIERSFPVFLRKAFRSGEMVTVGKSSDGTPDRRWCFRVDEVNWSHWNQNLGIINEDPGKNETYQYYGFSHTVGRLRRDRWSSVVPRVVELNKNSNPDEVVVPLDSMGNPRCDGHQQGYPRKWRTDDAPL

**Q.** For `CCOC(=O)CCNCC1(COc2ccc(C#N)c(F)c2)CN(S(=O)(=O)c2ccccc2C#N)C1` [Compound 114, Ethyl 3-(((3-((4-cyano-3-fluorophenoxy)methyl)-1-((2-cyanophenyl)sulfonyl)azetidin-3-yl)methyl)amino)propanoate], which IC50 is on record?
**A.** 6.45 nM

**Q.** With `COc1cc(C#N)c(F)cc1OCC1(CO)CN(S(=O)(=O)c2ccc(C)cc2C#N)C1` [Compound 110, 4-((1-((2-Cyano-4-methylphenyl)sulfonyl)-3-(hydroxymethyl)azetidin-3-yl)methoxy)-2-fluoro-5-methoxybenzonitrile] as the compound, how does the IC50 read?
**A.** 241 nM

**Q.** How did the IC50 turn out when `CNCC(=O)NCC1(COc2ccc(C#N)c(F)c2)CN(S(=O)(=O)c2ccc(Cl)cc2Cl)C1` [Compound 48, N-((3-((4-Cyano-3-fluorophenoxy)methyl)-1-((2,4-dichlorophenyl)sulfonyl)azetidin-3-yl)methyl)-2-(methylamino)acetamide] was run?
**A.** 252 nM

**Q.** How did the IC50 turn out when `CC(O)CNCC1(COc2ccc(C#N)c(F)c2)CN(S(=O)(=O)c2ccc(Cl)cc2Cl)C1` (centres unmarked) [Compound 24, 4-((1-((2,4-Dichlorophenyl)sulfonyl)-3-(((2-hydroxypropyl)amino)methyl)azetidin-3-yl)methoxy)-2-fluorobenzonitrile hydrochloride] was run?
**A.** 0.9 nM

**Q.** For `N#Cc1ccc(OCC2(NC(=O)CO)CN(S(=O)(=O)c3ccc(Cl)cc3Cl)C2)cc1F` [Compound 56, N-(3-((4-Cyano-3-fluorophenoxy)methyl)-1-((2,4-dichlorophenyl)sulfonyl)azetidin-3-yl)-2-hydroxyacetamide], which IC50 is on record?
**A.** 100 nM

**Q.** How did the IC50 turn out when `N#Cc1ccc(OCC2(CO)CN(S(=O)(=O)c3ccc(C(F)(F)F)nc3)C2)cc1F` [Compound 64, 2-Fluoro-4-((3-(hydroxymethyl)-1-((6-(trifluoromethyl)pyridin-3-yl)sulfonyl)azetidin-3-yl)methoxy)benzonitrile] was run?
**A.** 5000 nM

**Q.** For `NCc1ccc(OCC2(CO)CN(S(=O)(=O)c3ccc(Cl)cc3Cl)C2)cc1F` [Compound 10, (3-((4-(Aminomethyl)-3-fluorophenoxy)methyl)-1-((2,4-dichlorophenyl)sulfonyl)azetidin-3-yl)methanol], which IC50 is on record?
**A.** 10000 nM

**Q.** For `N#Cc1ccc(OCC2(CN[C@H]3C[C@H](O)C3)CN(S(=O)(=O)c3ccccc3C#N)C2)cc1F` [Compound 113, 4-((1-((2-Cyanophenyl)sulfonyl)-3-(((trans-3-hydroxycyclobutyl)amino)methyl)azetidin-3-yl)methoxy)-2-fluorobenzonitrile], which IC50 is on record?
**A.** 0.79 nM

**Q.** For `N#Cc1ccc(OCC2(CN[C@H]3CC[C@@H](O)CC3)CN(S(=O)(=O)c3ccc(Cl)cc3Cl)C2)cc1F` [Compound 39, 4-((1-((2,4-Dichlorophenyl)sulfonyl)-3-((((cis)-4-hydroxycyclohexyl)amino)methyl)azetidin-3-yl)methoxy)-2-fluorobenzonitrile hydrochloride], which IC50 is on record?
**A.** 1.3 nM

**Q.** For `COc1ccc(S(=O)(=O)N2CC(CO)(COc3ccc(C#N)c(F)c3)C2)c(C#N)c1` [Compound 106, 4-((1-((2-Cyano-4-methoxyphenyl)sulfonyl)-3-(hydroxymethyl)azetidin-3-yl)methoxy)-2-fluorobenzonitrile], which IC50 is on record?
**A.** 145 nM

**Q.** Which IC50 does the source give for `Cc1cc(C#N)ccc1S(=O)(=O)N1CC(CO)(COc2ccc(C#N)c(F)c2)C1` [Compound 79, 4-((1-((4-Cyano-2-methylphenyl)sulfonyl)-3-(hydroxymethyl)azetidin-3-yl)methoxy)-2-fluorobenzonitrile] here?
**A.** > 1300 nM

**Q.** For `N#Cc1ccc(OCC2(CNC3COC3)CN(S(=O)(=O)c3ccccc3C#N)C2)cc1F` [Compound 111, 4-((1-((2-Cyanophenyl)sulfonyl)-3-((oxetan-3-ylamino)methyl)azetidin-3-yl)methoxy)-2-fluorobenzonitrile], which IC50 is on record?
**A.** 47.6 nM

**Q.** With `N#CCCNCC1(COc2ccc(C#N)c(F)c2)CN(S(=O)(=O)c2ccc(Cl)cc2Cl)C1` [Compound 36, 4-((3-(((2-Cyanoethyl)amino)methyl)-1-((2,4-dichlorophenyl)sulfonyl)azetidin-3-yl)methoxy)-2-fluorobenzonitrile] as the compound, how does the IC50 read?
**A.** 10 nM

**Q.** With `N#Cc1ccc(OCC2(COP(=O)(O)O)CN(S(=O)(=O)c3ccc(Cl)cc3Cl)C2)cc1F` [Compound 14, Sodium (3-((4-cyano-3-fluorophenoxy)methyl)-1-((2,4-dichlorophenyl)sulfonyl)azetidin-3-yl)methyl phosphate] as the compound, how does the IC50 read?
**A.** 70 nM

**Q.** `CS(=O)(=O)c1ccc(S(=O)(=O)N2CC(CO)(COc3ccc(C#N)c(F)c3)C2)cc1` [Compound 69, 2-Fluoro-4-((3-(hydroxymethyl)-1-((4-(methylsulfonyl)phenyl)sulfonyl)azetidin-3-yl)methoxy)benzonitrile] was tested. Which IC50 did it give?
**A.** 5000 nM

**Q.** How did the IC50 turn out when `N#Cc1ccc(OCC2(CNC3COC3)CN(S(=O)(=O)c3ccc(Cl)cc3Cl)C2)cc1F` [Compound 26, 4-((1-((2,4-Dichlorophenyl)sulfonyl)-3-((oxetan-3-ylamino)methyl)azetidin-3-yl)methoxy)-2-fluorobenzonitrile] was run?
**A.** 8 nM

**Q.** How did the IC50 turn out when `N#Cc1ccc(OCC2(CN)CN(S(=O)(=O)c3ccc(Cl)cc3Cl)C2)cc1F` [Compound 44, 4-((3-(Aminomethyl)-1-((2,4-dichlorophenyl)sulfonyl)azetidin-3-yl)methoxy)-2-fluorobenzonitrile] was run?
**A.** 8.7 nM

**Q.** How did the IC50 turn out when `COc1ccc(S(=O)(=O)N2CC(CO)(COc3ccc(C#N)c(F)c3)C2)c(Br)c1` [Compound 102, 4-((1-((2-Bromo-4-methoxyphenyl)sulfonyl)-3-(hydroxymethyl)azetidin-3-yl)methoxy)-2-fluorobenzonitrile] was run?
**A.** 231 nM

**Q.** `CCOC(=O)CCNCC1(COc2ccc(C#N)c(F)c2)CN(S(=O)(=O)c2ccc(Cl)cc2Cl)C1` [Compound 37, Ethyl 3-(((3-((4-Cyano-3-fluorophenoxy)methyl)-1-((2,4-dichlorophenyl)sulfonyl)azetidin-3-yl)methyl)amino)propanoate hydrochloride] was tested. Which IC50 did it give?
**A.** 3.3 nM

**Q.** With `CCOc1cc(OCC2(CO)CN(S(=O)(=O)c3ccc(Cl)cc3Cl)C2)ccc1C#N` [Compound 100, 4-((1-((2,4-Dichlorophenyl)sulfonyl)-3-(hydroxymethyl)azetidin-3-yl)methoxy)-2-ethoxybenzonitrile] as the compound, how does the IC50 read?
**A.** > 1000 nM

**Q.** Which IC50 does the source give for `N#Cc1ccc(OCC2(CO)CN(S(=O)(=O)c3ccc(Cl)cc3C#N)C2)cc1F` [Compound 81, 4-((1-((4-Chloro-2-cyanophenyl)sulfonyl)-3-(hydroxymethyl)azetidin-3-yl)methoxy)-2-fluorobenzonitrile] here?
**A.** 5 nM

**Q.** How did the IC50 turn out when `N#Cc1ccc(OCC2(CNCc3nccs3)CN(S(=O)(=O)c3ccc(Cl)cc3Cl)C2)cc1F` [Compound 22, 4-((1-((2,4-dichlorophenyl)sulfonyl)-3-(((thiazol-2-ylmethyl)amino)methyl)azetidin-3-yl)methoxy)-2-fluorobenzonitrile hydrochloride] was run?
**A.** 117 nM

**Q.** How did the IC50 turn out when `Cc1ccccc1S(=O)(=O)N1CC(CO)(COc2ccc(C#N)c(F)c2)C1` [Compound 76, 2-Fluoro-4-((3-(hydroxymethyl)-1-(o-tolylsulfonyl)azetidin-3-yl)methoxy)benzonitrile] was run?
**A.** > 2500 nM

**Q.** For `C[C@H](O)CNCC1(COc2ccc(C#N)c(F)c2)CN(S(=O)(=O)c2ccccc2C#N)C1` [Compound 117, (S)-4-((1-((2-Cyanophenyl)sulfonyl)-3-(((2-hydroxypropyl)amino)methyl)azetidin-3-yl)methoxy)-2-fluorobenzonitrile], which IC50 is on record?
**A.** 1.6 nM

**Q.** For `N#Cc1ccc(OCC2(CO)CN(S(=O)(=O)c3ccc(Cl)cc3F)C2)cc1F` [Compound 78, 4-((1-((4-Chloro-2-fluorophenyl)sulfonyl)-3-(hydroxymethyl)azetidin-3-yl)methoxy)-2-fluorobenzonitrile], which IC50 is on record?
**A.** 100 to 500 nM

**Q.** With `COC(=O)c1ccc(S(=O)(=O)N2CC(CO)(COc3ccc(C#N)c(F)c3)C2)c(Cl)c1` [Compound 80, Methyl 3-chloro-4-((3-((4-cyano-3-fluorophenoxy)methyl)-3-(hydroxymethyl)azetidin-1-yl)sulfonyl)benzoate] as the compound, how does the IC50 read?
**A.** > 850 nM
